Test results taken from ChEMBL document CHEMBL2150993, “Substituted thiazoles VII. Synthesis and antitumor activity of certain 2-(substituted amino)-4-phenyl-1,3-thiazole analogs” (2012).

How the values were obtained:
Format in all cases: functional
[1] = Antiproliferative activity against human breast cancer cells after 48 hrs by cell counting analysis; details: Cancer cell lines
[2] = Antiproliferative activity against human prostate cancer cells after 48 hrs by cell counting analysis; details: Cancer cell lines
[3] = Antiproliferative activity against human melanoma cells after 48 hrs by cell counting analysis
[4] = Antiproliferative activity against human ovarian cancer cells after 48 hrs by cell counting analysis; details: Cancer cell lines
[5] = Antiproliferative activity against human non-small cell lung cancer cells after 48 hrs by cell counting analysis; details: Cancer cell lines
[6] = Antiproliferative activity against human colon cancer cells after 48 hrs by cell counting analysis; details: Cancer cell lines
[7] = Antiproliferative activity against human renal cancer cells after 48 hrs by cell counting analysis; details: Cancer cell lines
[8] = Antiproliferative activity against human leukemia cells after 48 hrs by cell counting analysis
[9] = Antiproliferative activity against human CNS cancer cells after 48 hrs by cell counting analysis; details: Cancer cell lines
[10] = read-out: LC50 (the source's name)

In the case of `O=c1[nH]cc(F)c(=O)[nH]1` [FLUOROURACIL], the GI50 [1] is reported as 76.4 µM, the TGI [1] is reported as over 100 µM and the CC50 [1, 10] is reported as over 100 µM. The GI50 [2] was 22.7 µM, the TGI [2] was over 100 µM and the CC50 [2, 10] was over 100 µM. For the same compound, the GI50 [3] was 70.6 µM, the TGI [3] was over 100 µM and the CC50 [3, 10] was over 100 µM. The GI50 [4] was 61.4 µM, the TGI [4] was over 100 µM and the CC50 [4, 10] was over 100 µM. The GI50 [5] was over 100 µM, the TGI [5] was over 100 µM and the CC50 [5, 10] was over 100 µM. For the same compound, the GI50 [6] was 8.4 µM, the TGI [6] was over 100 µM and the CC50 [6, 10] was over 100 µM. The GI50 [7] was 45.6 µM, the TGI [7] was over 100 µM and the CC50 [7, 10] was over 100 µM. It also gave a TGI [8] of over 100 µM, a CC50 [8, 10] of over 100 µM and a TGI [9] of over 100 µM. For the same compound, the CC50 [9, 10] was over 100 µM.
